Assay results from ChEMBL document CHEMBL5532672, “Discovery of 2-Ethoxy-5-isobutyramido-N-1-substituted Benzamide Derivatives as Selective Kv2.1 Inhibitors with In Vivo Neuroprotective Effects” (J Med Chem, 2024).
Each block holds one compound with its values, some of them ahead of it.

Legend:
[1] = MRT (0 to t) in Sprague-Dawley rat at 5 mg/kg, po measured upto 24 hrs by LC/MS/MS analysis; format: ADME, organism-based; conditions: in vivo
[2] = MRT (0 to infinity) in Sprague-Dawley rat at 5 mg/kg, po measured upto 24 hrs by LC/MS/MS analysis; format: ADME, organism-based; conditions: in vivo
[3] = Cmax in Sprague-Dawley rat at 5 mg/kg, po measured upto 24 hrs by LC/MS/MS analysis; format: ADME, organism-based; conditions: in vivo
[4] = Brain concentration in rat at 5 mg/kg, po measured after 30 mins; format: ADME, organism-based; conditions: read-out: Ct
[5] = biological target: Voltage-gated inwardly rectifying potassium channel KCNH2 (Homo sapiens, UniProt Q12809); assay: Inhibition of human ERG by whole cell patch-clamp assay; format: toxicity
[6] = biological target: Potassium voltage-gated channel subfamily A member 5 (Homo sapiens, UniProt P22460); assay: Inhibition of KV1.5 (unknown origin) by whole cell patch-clamp assay
[7] = Terminal elimination half life in Sprague-Dawley rat at 5 mg/kg, po measured upto 24 hrs by LC/MS/MS analysis; format: ADME, organism-based; conditions: in vivo, read-out: beta t1/2 (converted)
HEK293 [8] = assay: Anti-apoptotic activity in HEK293 cells harbouring Kv2.1 assessed as viable cells at 3 uM by annexin-V and propidium staining based flow cytometry analysis (reference value: 99.8%); format: functional; conditions: Homo sapiens, read-out: Activity
[9] = AUC (0 to infinity) in Sprague-Dawley rat at 5 mg/kg, po measured upto 24 hrs by LC/MS/MS analysis; format: ADME, organism-based; conditions: in vivo
HEK293 [10] = assay: Anti-apoptotic activity in HEK293 cells harbouring Kv2.1 assessed as viable cells at 0.3 uM by annexin-V and propidium staining based flow cytometry analysis (reference value: 99.8%); format: functional; conditions: Homo sapiens, read-out: Activity
[11] = Plasma concentration in rat at 1 mg/kg, iv measured after 30 mins; format: ADME, organism-based
[12] = Plasma concentration in rat at 5 mg/kg, po measured after 30 mins; format: ADME, organism-based
[13] = Oral bioavailability in Sprague-Dawley rat at 5 mg/kg measured upto 24 hrs by LC/MS/MS analysis; format: ADME, organism-based; conditions: in vivo
[14] = Apparent volume of distribution in Sprague-Dawley rat at […], iv measured upto 24 hrs by LC/MS/MS analysis; format: ADME, organism-based; conditions: in vivo, read-out: Vz
[15] = Tmax in Sprague-Dawley rat at 5 mg/kg, po measured upto 24 hrs by LC/MS/MS analysis; format: ADME, organism-based; conditions: in vivo
[16] = Brain concentration in rat at 1 mg/kg, iv measured after 15 mins; format: ADME, organism-based; conditions: read-out: Ct
[17] = Plasma concentration in rat at 1 mg/kg, iv measured after 15 mins; format: ADME, organism-based
[18] = biological target: T1, Voltage-gated potassium channel KCNC1 (Homo sapiens, UniProt P48547); assay: Inhibition of KV3.1 (unknown origin) by whole cell patch-clamp assay
T1 sequence (P48547 whole entry): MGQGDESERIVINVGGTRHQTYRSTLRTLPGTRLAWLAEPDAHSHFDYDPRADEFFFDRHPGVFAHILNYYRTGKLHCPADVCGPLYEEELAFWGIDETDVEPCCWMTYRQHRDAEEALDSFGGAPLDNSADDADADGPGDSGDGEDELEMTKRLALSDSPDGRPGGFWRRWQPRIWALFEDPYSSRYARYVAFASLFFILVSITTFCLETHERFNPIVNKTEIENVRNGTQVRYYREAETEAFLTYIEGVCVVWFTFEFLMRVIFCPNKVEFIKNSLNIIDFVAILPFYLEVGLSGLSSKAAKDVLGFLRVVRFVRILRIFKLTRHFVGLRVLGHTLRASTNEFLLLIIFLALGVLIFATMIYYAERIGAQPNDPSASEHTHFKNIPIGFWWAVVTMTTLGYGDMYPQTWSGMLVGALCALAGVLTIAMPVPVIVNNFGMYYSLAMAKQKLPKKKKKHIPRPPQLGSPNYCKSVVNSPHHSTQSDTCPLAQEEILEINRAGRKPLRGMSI

[19] = Terminal elimination half life in Sprague-Dawley rat at 0.5 mg/kg, iv measured upto 24 hrs by LC/MS/MS analysis; format: ADME, organism-based; conditions: in vivo, read-out: beta t1/2 (converted)
[20] = AUC (0 to t) in Sprague-Dawley rat at 5 mg/kg, po measured upto 24 hrs by LC/MS/MS analysis; format: ADME, organism-based; conditions: in vivo
[21] = MRT (0 to infinity) in Sprague-Dawley rat at 0.5 mg/kg, iv measured upto 24 hrs by LC/MS/MS analysis; format: ADME, organism-based; conditions: in vivo
[22] = AUC (0 to infinity) in Sprague-Dawley rat at 0.5 mg/kg, iv measured upto 24 hrs by LC/MS/MS analysis; format: ADME, organism-based; conditions: in vivo
[23] = Cmax in Sprague-Dawley rat at 0.5 mg/kg, iv measured upto 24 hrs by LC/MS/MS analysis; format: ADME, organism-based; conditions: in vivo
[24] = AUC (0 to t) in Sprague-Dawley rat at 0.5 mg/kg, iv measured upto 24 hrs by LC/MS/MS analysis; format: ADME, organism-based; conditions: in vivo
[25] = biological target: T2, Potassium voltage-gated channel subfamily B member 1 (Homo sapiens, UniProt Q14721); assay: Inhibition of human KV2.1 stably expressed in HEK293 cells by whole cell patch-clamp assay; format: cell-based
T2 sequence (Q14721 whole entry): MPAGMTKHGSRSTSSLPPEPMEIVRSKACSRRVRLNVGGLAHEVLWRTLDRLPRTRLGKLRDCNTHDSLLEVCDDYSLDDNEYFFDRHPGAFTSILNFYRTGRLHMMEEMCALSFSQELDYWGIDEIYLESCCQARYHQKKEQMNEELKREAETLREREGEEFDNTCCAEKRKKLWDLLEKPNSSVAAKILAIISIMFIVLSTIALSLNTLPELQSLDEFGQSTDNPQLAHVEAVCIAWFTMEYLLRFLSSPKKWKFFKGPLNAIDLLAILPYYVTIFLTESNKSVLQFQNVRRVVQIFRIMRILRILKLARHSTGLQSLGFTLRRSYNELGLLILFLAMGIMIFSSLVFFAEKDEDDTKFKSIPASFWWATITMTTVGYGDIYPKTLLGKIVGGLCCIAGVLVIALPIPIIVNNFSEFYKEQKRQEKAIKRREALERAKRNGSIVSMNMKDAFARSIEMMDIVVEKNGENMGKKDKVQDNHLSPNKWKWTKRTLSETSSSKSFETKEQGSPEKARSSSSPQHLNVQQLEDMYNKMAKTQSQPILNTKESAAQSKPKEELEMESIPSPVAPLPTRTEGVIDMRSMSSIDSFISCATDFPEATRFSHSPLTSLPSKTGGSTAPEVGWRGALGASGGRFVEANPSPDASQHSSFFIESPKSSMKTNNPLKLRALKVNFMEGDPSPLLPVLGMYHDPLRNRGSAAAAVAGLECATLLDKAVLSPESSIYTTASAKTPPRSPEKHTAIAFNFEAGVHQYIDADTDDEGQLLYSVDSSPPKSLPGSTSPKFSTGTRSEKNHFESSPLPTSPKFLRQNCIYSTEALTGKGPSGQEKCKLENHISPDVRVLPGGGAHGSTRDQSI

[26] = Clearance in Sprague-Dawley rat at 0.5 mg/kg, iv measured upto 24 hrs by LC/MS/MS analysis; format: ADME, organism-based; conditions: in vivo
[27] = Brain concentration in rat at 1 mg/kg, iv measured after 30 mins; format: ADME, organism-based; conditions: read-out: Ct
HEK293 [28] = assay: cells; conditions: Homo sapiens, HEK293, read-out: Activity; at 10 mM
Description: Anti-apoptotic activity in HEK293 cells harbouring Kv2.1 assessed as viable cells at 10 mM by annexin-V and propidium staining based flow cytometry analysis (Rvb = 99.8% )

Sequence of Voltage-gated inwardly rectifying potassium channel KCNH2 (Q12809 whole entry): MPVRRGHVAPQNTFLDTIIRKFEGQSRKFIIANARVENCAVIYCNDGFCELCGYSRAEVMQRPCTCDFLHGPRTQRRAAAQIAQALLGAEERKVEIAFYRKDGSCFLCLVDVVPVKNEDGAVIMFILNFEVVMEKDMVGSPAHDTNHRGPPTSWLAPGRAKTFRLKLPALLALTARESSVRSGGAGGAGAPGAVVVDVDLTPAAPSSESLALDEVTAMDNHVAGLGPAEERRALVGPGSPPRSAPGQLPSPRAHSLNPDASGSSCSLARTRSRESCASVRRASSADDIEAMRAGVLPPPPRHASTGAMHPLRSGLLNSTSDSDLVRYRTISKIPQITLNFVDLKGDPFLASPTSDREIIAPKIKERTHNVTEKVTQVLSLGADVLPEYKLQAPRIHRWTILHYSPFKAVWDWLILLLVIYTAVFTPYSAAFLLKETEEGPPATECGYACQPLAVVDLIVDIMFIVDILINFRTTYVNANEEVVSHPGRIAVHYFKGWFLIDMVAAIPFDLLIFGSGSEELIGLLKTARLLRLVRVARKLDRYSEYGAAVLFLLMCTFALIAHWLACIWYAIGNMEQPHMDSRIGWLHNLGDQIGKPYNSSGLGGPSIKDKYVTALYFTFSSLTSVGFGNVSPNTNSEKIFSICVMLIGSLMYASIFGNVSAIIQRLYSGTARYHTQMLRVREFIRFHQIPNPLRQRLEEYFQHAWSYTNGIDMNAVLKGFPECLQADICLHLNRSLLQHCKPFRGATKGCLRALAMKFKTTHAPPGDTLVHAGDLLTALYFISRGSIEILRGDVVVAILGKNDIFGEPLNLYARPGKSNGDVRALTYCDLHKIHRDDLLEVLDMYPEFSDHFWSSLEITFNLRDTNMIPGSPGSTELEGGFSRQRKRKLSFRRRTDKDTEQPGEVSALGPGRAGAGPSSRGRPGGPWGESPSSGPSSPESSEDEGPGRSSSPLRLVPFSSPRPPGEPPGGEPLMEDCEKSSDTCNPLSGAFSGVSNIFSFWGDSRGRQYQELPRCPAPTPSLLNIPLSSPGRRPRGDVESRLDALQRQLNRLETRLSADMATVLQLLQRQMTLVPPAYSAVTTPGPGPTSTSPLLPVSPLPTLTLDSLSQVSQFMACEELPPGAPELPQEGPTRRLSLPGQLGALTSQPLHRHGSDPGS
Sequence of Potassium voltage-gated channel subfamily A member 5 (P22460 whole entry): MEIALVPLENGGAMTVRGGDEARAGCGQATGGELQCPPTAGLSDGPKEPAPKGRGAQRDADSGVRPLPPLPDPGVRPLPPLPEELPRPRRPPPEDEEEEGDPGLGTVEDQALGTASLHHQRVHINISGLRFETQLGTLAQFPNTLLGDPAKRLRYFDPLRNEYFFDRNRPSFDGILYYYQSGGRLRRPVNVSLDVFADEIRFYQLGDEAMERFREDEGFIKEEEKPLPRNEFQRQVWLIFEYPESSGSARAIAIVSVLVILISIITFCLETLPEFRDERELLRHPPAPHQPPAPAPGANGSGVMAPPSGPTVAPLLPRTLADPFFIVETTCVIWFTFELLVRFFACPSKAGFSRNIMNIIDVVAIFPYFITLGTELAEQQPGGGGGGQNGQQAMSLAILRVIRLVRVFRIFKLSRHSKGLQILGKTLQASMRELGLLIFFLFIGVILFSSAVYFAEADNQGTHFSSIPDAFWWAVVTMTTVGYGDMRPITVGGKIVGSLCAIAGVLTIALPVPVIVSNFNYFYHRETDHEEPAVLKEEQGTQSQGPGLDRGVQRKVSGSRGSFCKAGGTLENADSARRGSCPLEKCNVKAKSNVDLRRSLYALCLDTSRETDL

MRT last at 24 h [1]: 2.05 h
MRT inf [2]: 2.52 h
Cmax [3]: 147 ng/mL
concentration at 0.5 h [4]: 54.9 ng/g
IC50 [6]: 9.2 µM
half-life [7]: 1.89 h
AUC(0-inf) [9]: 355 ng·h/mL
concentration at 0.5 h [11]: 235 ng/mL
concentration at 0.5 h [12]: 580 ng/mL
bioavailability [13]: 20.4%
Vd [14]: 2.1 L/kg
Tmax [15]: 0.65 h
concentration at 0.25 h [16]: 38.2 ng/g
concentration at 0.25 h [17]: 539 ng/mL
IC50 [18]: > 30 µM
half-life [19]: 0.51 h
AUC(0-t) at 24 h [20]: 337 ng·h/mL
MRT inf [21]: 1.39 h
AUC(0-inf) [22]: 174 ng·h/mL
Cmax [23]: 693 ng/mL
AUC(0-t) at 24 h [24]: 174 ng·h/mL
IC50 [25]: 0.07 µM
clearance [26]: 48 mL/min/kg
concentration at 0.5 h [27]: 14.6 ng/g
SMILES: CCOc1ccc(NC(=O)C(C)C)cc1C(=O)NC(C)c1cccc(NC)c1 (stereo not drawn)
IC50 [5]: 30 µM
viability at 3 µM (HEK293 [8]): 55.4%
viability at 0.3 µM (HEK293 [10]): 62%

SMILES: CC[N+](CC)(CC)CC [TETRYLAMMONIUM]
viability at 10000 µM (HEK293 [28]): 58.4%
